This note sets out measurements from patent EP0696280B1, “SUBSTITUTED PYRROLIDIN-3-YL-ALKYL-PIPERIDINES USEFUL AS TACHYKININ ANTAGONISTS” (MERRELL PHARMACEUTICALS INC., priority 1993, dated 1994).

Molecules are shown by their SMILES. Counter-ions that a name gives are not always drawn.

In one assay the target is T1, NK-3 receptor (Cavia porcellus, UniProt P30098).
T1 construct: freshly collected guinea pig cerebral cortex; from tissue; host or cells: guinea pig cerebral cortex membranes
T1 sequence (P30098 1-440): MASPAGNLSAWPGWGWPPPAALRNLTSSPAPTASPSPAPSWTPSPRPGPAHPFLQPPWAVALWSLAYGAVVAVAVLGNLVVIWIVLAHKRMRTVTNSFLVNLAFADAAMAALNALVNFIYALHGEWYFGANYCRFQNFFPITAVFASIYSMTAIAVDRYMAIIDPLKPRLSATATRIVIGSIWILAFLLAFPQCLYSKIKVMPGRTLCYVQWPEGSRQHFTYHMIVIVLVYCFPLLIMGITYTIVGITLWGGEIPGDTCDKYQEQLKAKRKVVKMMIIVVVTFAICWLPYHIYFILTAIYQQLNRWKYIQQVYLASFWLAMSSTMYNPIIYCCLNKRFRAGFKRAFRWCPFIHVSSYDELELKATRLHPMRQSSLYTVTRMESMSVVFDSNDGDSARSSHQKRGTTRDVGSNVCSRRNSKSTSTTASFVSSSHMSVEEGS
Put plainly: Antagonism of iodinated tachykinin binding to NK-3 receptor (125I-Bolton Hunter labeled Lys-4 eledoisin, guinea pig cerebral cortex membranes). As to the method: The NK1 receptor affinity of proposed tachykinin antagonists was devaluated in guinea pig lungs (Keystone Biologicals, Cleveland, OH), affinity for the NK2 receptor evaluated in HSKR-1 cells (which are mouse 3T3 fibroblasts expressing the human jejunal NK2 receptor) and NK-3 receptor affinity was evaluated in freshly collected guinea pig cerebral cortex. Tissues or cells were homogenized with a Polytron in 15 volumes of 50 mM Tris-HCl buffer (pH 7.4, 4°C) and centrifuged. The pellet was resuspended in Tris-HCl buffer and was centrifuged; the pellet was washed twice by resuspension. The final pellet was resuspended at a concentration of 40 mg/ml for tissues (guinea pig lung and cerebral cortex) and 20 mg/ml for cells in incubation buffer and remained at room temperature for at least 15 min prior to use. Receptor binding was initiated by addition of 250 µl membrane preparation in duplicate to 0.1 nM of the following radioligands: ^125I-Bolton Hunter Lys-3 labeled substance P; ^125iodohistidyl-1-neurokinin A; and ^125I-Bolton Hunter labeled Lys-4 eledoisin in a final volume of 500 µl of buffer containing 50 mM Tris-HCl (pH 7.4 at room temperature), 0.1% bovine serum albumin, 2 mM MnCl2, 40 µg/ml bacitracin, 4 µg/ml leupeptin and chymostatin, 1 µM thiorphan and various doses of the putative tachykinin antagonists. Incubations were performed at room temperature for 90 min (NK1 receptor assays) or 2 hr (NK2 and NK3 receptor assays); binding was terminated by addition of 50 mM Tris-HCl buffer (pH 7.4, 4°C) and filtration under vacuum through GF/B filters presoaked with 0.1% polyethyleneimine (NK1 receptor assays) or 0.5% bovine serum albumin (NK2 and NK3 receptor assays). Filter bound radioactivity was quantitated in a gamma counter. Nonspecific binding was defined as binding in the presence of 1 µM substance P, neurokinin A, or eledoisin. Specific binding was calculated by subtracting nonspecific binding from total binding. Competition of iodinated SP, NKA, or eledoisin binding by test compounds or standards was expressed as a percentage of this maximum competition. IC50 values (concentration required to inhibit 50% of receptor binding) were generated for each of the test compounds by nonlinear regression using an iterative curve fitting program (GraphPAD Inplot, San Diego, CA).

Assay [1] concerns SP-induced plasma protein extravasation. Put plainly: Antagonism of SP-induced plasma protein extravasation in guinea pig trachea (Evans Blue dye). As to conditions: Figure 2; i.v.; result in words. It counts as in vivo. The method, then:
SP-induced protein leakage through postcapillary venules was assessed by measuring Evans Blue dye accumulation in guinea pig trachea. Animals were anesthetized with pentobarbital then injected with Evans Blue dye (20 mg/kg, i.v., prepared in 0.9% NaCl solution). One minute after dye administration, the antagonist was administered (i.v.) followed by SP (0.3 nmole/kg, i.v.) and, after 5 min, excess dye removed from the circulation by transcardiac perfusion with 50 ml 0.9% NaCl solution. The trachea and primary bronchi were removed, blotted dry and weighed. Dye quantitation was performed spectrophotometrically (620 nm) after extracting tissues in formamide for 24 hr at 50°C. Values were subtracted from background (dye only, no agonist). ED50 (dose of compound which inhibits SP-induced plasma protein extravasation by 50%) was calculated from linear regression analysis.
Values are mean (95% confidence limits). Compounds were injected intravenously 2 min prior to SP administration. ED50 values are based on at least 3 doses; at least 4 animals were used per dose.

One may read the IC50 as the concentration that inhibits the measured activity by half. Low readings indicate greater potency in that assay, high ones weaker potency in that assay. On NK-3 receptor, `COc1cc(C(=O)N2CCC(CCN3CCC(C(N)=O)(c4ccccc4)CC3)(c3ccc(Cl)c(Cl)c3)C2)cc(OC)c1OC` (racemic) [Example 3A, 1-[2-[3-(3,4-dichloro-phenyl-3-yl)-1-(3,4,5-trimethoxy-benzoyl)-pyrrolidin-3-yl]-ethyl] -4-phenyl-piperidine-4-carboxylic acid amide hydrochloride] gave an IC50 of 54.2 nM.
With `COc1cc(C(=O)N2CCC(CCN3CCC(C(N)=O)(c4ccccc4)CC3)(c3ccc(Cl)c(Cl)c3)C2)cc(OC)c1OC` (stereo not drawn) [Example 3, 1-[2-[3-(3,4-dichloro-phenyl)-1-(3,4,5-trimethoxy-benzoyl)-pyrrolidin-3-yl]-ethyl]-4-phenyl-piperidine-4-carboxylic acid amide], on NK-3 receptor (result in words), the “affinity for NK3 receptors” value is listed as “high affinity”. The “antagonism of SP-induced plasma protein extravasation in guinea pig trachea” value in assay [1] was “dose related antagonism”.
